Results: PMC7355497 (Pharmaceutics, 2020)
Structures can show the parent of a compound that is named as a salt.

Legend:
[1] = cited from earlier work
P-gp = P-gp (Homo sapiens, UniProt P08183); details: 15 min, 10 μM
Chain of P-gp (P08183 whole entry): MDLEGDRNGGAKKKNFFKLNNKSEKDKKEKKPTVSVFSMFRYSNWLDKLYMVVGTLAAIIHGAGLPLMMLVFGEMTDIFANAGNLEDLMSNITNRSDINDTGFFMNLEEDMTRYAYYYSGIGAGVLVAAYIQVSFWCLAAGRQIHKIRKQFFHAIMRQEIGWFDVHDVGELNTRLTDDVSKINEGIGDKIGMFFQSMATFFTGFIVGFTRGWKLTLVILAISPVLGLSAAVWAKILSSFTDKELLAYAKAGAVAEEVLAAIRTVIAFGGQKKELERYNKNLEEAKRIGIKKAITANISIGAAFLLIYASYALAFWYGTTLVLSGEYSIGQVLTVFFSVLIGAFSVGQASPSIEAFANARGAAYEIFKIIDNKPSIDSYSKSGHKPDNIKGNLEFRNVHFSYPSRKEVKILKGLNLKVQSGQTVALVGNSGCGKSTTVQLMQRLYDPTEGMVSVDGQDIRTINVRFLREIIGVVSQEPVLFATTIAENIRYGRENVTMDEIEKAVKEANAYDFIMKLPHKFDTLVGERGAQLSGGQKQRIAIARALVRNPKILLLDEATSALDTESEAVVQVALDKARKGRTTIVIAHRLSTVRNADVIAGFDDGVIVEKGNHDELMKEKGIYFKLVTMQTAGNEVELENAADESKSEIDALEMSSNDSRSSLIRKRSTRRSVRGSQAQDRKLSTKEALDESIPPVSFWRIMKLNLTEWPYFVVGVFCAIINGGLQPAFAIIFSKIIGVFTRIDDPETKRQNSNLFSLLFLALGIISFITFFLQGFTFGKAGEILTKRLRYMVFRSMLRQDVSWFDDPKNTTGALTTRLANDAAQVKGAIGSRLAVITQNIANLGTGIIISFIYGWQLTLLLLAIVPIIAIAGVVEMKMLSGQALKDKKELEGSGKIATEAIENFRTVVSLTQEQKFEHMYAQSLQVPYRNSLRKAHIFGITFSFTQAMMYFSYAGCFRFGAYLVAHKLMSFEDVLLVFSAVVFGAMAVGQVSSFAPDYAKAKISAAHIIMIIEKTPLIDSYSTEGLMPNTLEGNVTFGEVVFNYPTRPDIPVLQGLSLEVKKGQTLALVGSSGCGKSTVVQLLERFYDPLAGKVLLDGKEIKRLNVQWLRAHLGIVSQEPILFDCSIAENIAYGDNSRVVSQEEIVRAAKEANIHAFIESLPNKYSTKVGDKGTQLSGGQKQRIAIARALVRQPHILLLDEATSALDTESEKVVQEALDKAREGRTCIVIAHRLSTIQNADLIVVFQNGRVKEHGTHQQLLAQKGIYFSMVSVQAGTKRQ

Fluorescence intensity as percentage of control group (P-gp inhibition) (P-gp) | SMILES | Fraction of dose excreted into feces as the unchanged form [1] [%] | Fraction of dose excreted into urine as the unchanged form [1] [%]
 | CC(C)(C(=O)O)c1ccc(C(O)CCCN2CCC(C(O)(c3ccccc3)c3ccccc3)CC2)cc1 (stereo not drawn) [fexofenadine, Fexofenadine hydrochloride] | 80 | 11
147.2% ± 12.4 | Cc1cc(O)c2c(c1)C(=O)c1cc(O)cc(O)c1C2=O [emodin] |  | 
